# Tests used:
# Test in all cases: greenhouse pre-emergence trial, percent damage vs untreated control 21 days after treatment
# Format in all cases: in vivo
# Stellaria media = settings: 30 g/ha, STEME, Example 2
# Veronica persica = settings: VERPE, Example 2
# Papaver rhoeas = settings: PAPRH, Example 2
# Matricaria inodora = settings: MATIN, Example 2
# Lolium perenne = settings: 15 g/ha, LOLPE, Example 2
# Galium aparine = settings: GALAP, Example 2
compound,measurement,setting,value
CC(C)N(C(=O)COc1nnc(C(F)(F)F)s1)c1ccc(F)cc1 [flufenacet],flufenacet alone (% control),Stellaria media,0%
same,flufenacet alone (% control),Veronica persica; 15 g/ha,0%
same,flufenacet alone (% control),Veronica persica; 30 g/ha,10%
same,flufenacet alone (% control),Veronica persica; 60 g/ha,10%
same,flufenacet alone (% control),Papaver rhoeas; 15 g/ha,0%
same,flufenacet alone (% control),Papaver rhoeas; 30 g/ha,0%
same,flufenacet alone (% control),Papaver rhoeas; 60 g/ha,0%
same,flufenacet alone (% control),Matricaria inodora; 15 g/ha,0%
same,flufenacet alone (% control),Matricaria inodora; 30 g/ha,0%
same,flufenacet alone (% control),Lolium perenne,30%
same,flufenacet alone (% control),Galium aparine; 15 g/ha,0%
same,flufenacet alone (% control),Galium aparine; 30 g/ha,10%
same,flufenacet alone (% control),Galium aparine; 60 g/ha,55%

# From US6683027B2, “Herbicidal mixtures” (BASF Aktienegesellschaft, priority 2000, dated 2004)
